Source: patent US6921770B2 (priority 2000, dated 2005)
Like-named read-outs stand apart in the source and are kept apart here.

Key:
rice blast fungi [1] = format: in vivo, Pyricularia grisea
rice blast fungi [2] = format: cell-based, Magnaporthe grisea
rice blast fungi [3] = format: cell-based, Magnaporthe grisea; remark: listed apart in the source
Pyricularia grisea = format: in vivo
[4] = tested on: Salmonella typhimurium TA100 and TA98
Oryzias latipes = details: in vivo
Sprague-Dawley rats = details: rat, in vivo

Compound | Inhibiting Ratio (%) (at 250 ppm) (rice blast fungi [1]) | controlling effect on rice blast (Pyricularia grisea; 2 ppm) | controlling effect on rice blast (Pyricularia grisea; 10 ppm) | controlling effect on rice blast (Pyricularia grisea; 100 ppm) | also measured
Br.Cn1c(CC(=O)Nc2ccccc2)csc1=Nc1cc(Cl)cc(Cl)c1 [Compound 5, 2-(3,5-dichlorophenylimino)-3-methyl-4-(N-phenylcarbamoylmethyl)-1,3-thiazol-4-ine hydrobromide] | 100% |  |  |  | color of the medium (rice blast fungi [2]; 5 μg/ml): white; concentration at which the accumulation of melanin in the appressorium is inhibited (rice blast fungi [3]): above 10 μg/ml
Cl.Cn1c(CC(=O)Nc2ccccc2F)csc1=Nc1ccc(Br)cc1 [Compound 152, 2-(4-bromophenylimino)-3-methyl-4-[N-(2-fluorophenyl)carbamoylmethyl]-1,3-thiazol-4-ine hydrochloride] | 100% | 70% | 85% | 99% | 
CCCCc1ccc(N=c2scc(CC(=O)Nc3ccc(OC)cc3)n2C)cc1.Cl [Compound 197, 2-[4-(n-butyl)phenylimino]-3-methyl-4-[N-(4-methoxyphenyl)carbamoylmethyl]-1,3-thiazol-4-ine hydrochloride] | 95% | 83% | 98% | 95% | 
COc1ccc(NC(=O)Cc2csc(=Nc3cccc(Br)c3)n2C)cc1.Cl [Compound 201, 2-(3-bromophenylimino)-3-methyl-4-[N-(4-methoxyphenyl)carbamoylmethyl]-1,3-thiazol-4-ine hydrochloride] | 97% | 87% | 99% | 97% | 
COc1ccc(NC(=O)Cc2csc(=Nc3ccc(F)c(Cl)c3)n2C)cc1.Cl [Compound 202, 2-(3-chloro-4-fluorophenylimino)-3-methyl-4-[N-(4-methoxyphenyl)carbamoylmethyl]-1,3-thiazol-4-ine hydrochloride] | 95% | 93% | 98% | 95% | 
COc1ccc(NC(=O)Cc2csc(=Nc3cccc(F)c3)n2C)cc1.Cl [Compound 203, 2-(3-fluorophenylimino)-3-methyl-4-[N-(4-methoxyphenyl)carbamoylmethyl]-1,3-thiazol-4-ine hydrochloride] | 93% | 93% | 99% | 93% | 
COc1ccc(NC(=O)Cc2csc(=Nc3ccccc3F)n2C)cc1.Cl [Compound 204, 2-(2-fluorophenylimino)-3-methyl-4-[N-(4-methoxyphenyl)carbamoylmethyl]-1,3-thiazol-4-ine hydrochloride] | 97% | 83% | 95% | 97% | bacterial reverse mutation [4]: does not cause bacterial reverse mutation; colony number in the group treated with the test material [4]: less than twice of that in the negative control group; Accumulated number of dead animals (Oryzias latipes): 0; acute toxicity value (Oryzias latipes): > 100 mg/L; body weight (Sprague-Dawley rats): Normal weight gain; dead animals (Sprague-Dawley rats): not observed; general symptoms (Sprague-Dawley rats): Any abnormal observations were made; postmortem examination (Sprague-Dawley rats): does not show any abnormal conservation; minimal lethal dose (Sprague-Dawley rats; po): higher than 2500 mg/kg
COc1ccc(NC(=O)Cc2csc(=Nc3ccc(C(F)(F)F)cc3)n2C)cc1.Cl [Compound 205, 2-(4-trifluoromethylphenylimino)-3-methyl-4-[N-(4-methoxyphenyl)carbamoylmethyl]-1,3-thiazol-4-ine hydrochloride] | 97% | 93% | 98% | 97% | 
COc1ccc(NC(=O)Cc2csc(=Nc3ccc(F)cc3F)n2C)cc1.Cl [Compound 206, 2-(2,4-difluorophenylimino)-3-methyl-4-[N-(4-methoxyphenyl)carbamoylmethyl]-1,3-thiazol-4-ine hydrochloride] | 93% | 93% | 97% | 93% | 
CCCCc1ccc(N=c2scc(CC(=O)Nc3ccc(C)c(Cl)c3)n2C)cc1.Cl [Compound 234, 2-[4-(n-butyl)phenylimino]-3-methyl-4-(N-[3-chloro-4-methylphenyl)carbamoylmethyl]-4-thiazoline hydrochloride] | 97% | 75% | 92% | 97% | 
Br.COc1ccc(NC(=O)Cc2csc(=Nc3ccc(C#N)cc3)n2C)cc1 [Compound 323, 2-(4-cyanophenylimino)-3-methyl-4-[N-(4-methoxyphenyl)carbamoylmethyl]-1,3-thiazol-4-ine hydrobromide] | 97% | 75% | 100% | 100% | 
COc1ccc(NC(=O)Cc2csc(=Nc3cccc(Br)c3)n2C)cc1 [Compound 335, 2-(3-bromophenylimino)-3-methyl-4-[N-(methoxyphenyl)carbamoylmethyl]-1,3-thiazol-4-ine] | 99% | 72% | 95% | 94% | 
Cc1cccc2sc3nncn3c12 [tricyclazole, reference compound] |  |  |  |  | color of the medium (rice blast fungi [2]): red
